According to ChEMBL document CHEMBL4145553, “Design, synthesis, and biological evaluation of novel amide and hydrazide based thioether analogs targeting Histone deacteylase (HDAC) enzymes” (Eur J Med Chem, 2018):

Experiments:
MDA-MB-435 = experiment: Antiproliferative activity against human MDA-MB-435 cells after 24 hrs by MTT assay; type: functional
HL-60 = experiment: Antiproliferative activity against human HL60 cells after 24 hrs by MTT assay; type: functional

GI50 (MDA-MB-435): 1780 nM | GI50 (HL-60): 590 nM
SMILES: CC(/C=C/C(=O)NO)=C\[C@@H](C)C(=O)c1ccc(N(C)C)cc1 [TRICHOSTATIN]
